Results taken from patent publication US6207671A, “Cycloalkano-pyridines” (Bayer Aktiengesellschaft, priority 1996, dated 2001).
One block for each molecule: values may come before it.

Key:
HDL cholesterol = test: In vivo activity: oral action on lipoproteins and triglycerides in hamsters (HDL rise); design: species or system Syrian golden hamsters; settings: dose 2 × 3 mg/kg, up to 24 hours
Experimental: In experiments to determine the oral action on lipoproteins and triglycerides, test substance dissolved in DMSO and 0.5% Tylose suspended by means of a stomach tube are administered orally to Syrian golden hamsters from in-house breeding. To determine the CETP activity, blood (about 250 μl) is taken by retro-orbital puncture before the start of the experiment. The test substances are then administered orally by means of a stomach tube. The control animals receive identical volumes of solvents without test substance. The feed is then withdrawn from the animals and blood is taken at various times--up to 24 hours after substance administration--by puncture of the retro-orbital venous plexus. Clotting is ended by incubation at 4° C. overnight, then centrifugation at 6000×g is carried out for 10 minutes. In the serum thus obtained, the content of cholesterol and triglycerides is determined with the aid of modified commercially available enzyme tests (cholesterol enzymatic 14366 Merck, triglycerides 14364 Merck). Serum is suitably diluted using physiological saline solution.
100 μl of serum dilution are mixed with 100 μl of […] in 96-hole plates and incubated at room temperature for 10 minutes. The optical density is then determined at a wavelength of 492 nm using an automatic plate-reading apparatus. The triglyceride or cholesterol concentration contained in the samples is determined with the aid of a standard curve measured in parallel.
The determination of the content of HDL cholesterol is carried out according to the manufacturer's instructions after precipitation of the ApoB-containing lipoproteins by means of a reagent mixture (Sigma 352-4 HDL cholesterol reagent).

[1] = target: T1, cholesterol ester transfer protein (CETP) (Homo sapiens, UniProt P11597); test: CETP inhibition test: transfer of 3H-cholesterol ester from human HD lipoproteins to biotinylated LD lipoproteins (SPA); type: biochemical; settings: human plasma CETP, 18 h, 37° C.
T1 construct: CETP is obtained from human plasma in partially purified form; from tissue; host or cells: human plasma
T1 sequence (P11597 18-493): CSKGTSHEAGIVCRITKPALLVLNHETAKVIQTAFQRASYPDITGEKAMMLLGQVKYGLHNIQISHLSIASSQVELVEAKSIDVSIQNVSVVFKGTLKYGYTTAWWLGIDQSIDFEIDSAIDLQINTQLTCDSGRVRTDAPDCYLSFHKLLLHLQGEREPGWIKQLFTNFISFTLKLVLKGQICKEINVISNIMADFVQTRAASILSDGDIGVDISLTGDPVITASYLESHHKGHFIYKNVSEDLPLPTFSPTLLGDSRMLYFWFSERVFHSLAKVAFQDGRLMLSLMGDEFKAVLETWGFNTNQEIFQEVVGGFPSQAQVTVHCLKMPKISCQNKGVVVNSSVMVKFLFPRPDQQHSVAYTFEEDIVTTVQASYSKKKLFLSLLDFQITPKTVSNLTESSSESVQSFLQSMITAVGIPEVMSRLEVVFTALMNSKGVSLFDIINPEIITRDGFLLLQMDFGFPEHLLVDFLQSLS
Experimental: CETP is obtained from human plasma in partially purified form by differential centrifugation and column chromatography and used for the test. To this end, human plasma is adjusted to a density of 1.21 g per ml using NaBr and centrifuged at 4° C. for 18 h at 50,000 rpm. The bottom fraction (d>1.21 g/ml) is applied to a Sephadex®phenyl-sepharose 4B (Pharmacia) column, washed with 0.15 M NaCl/0.001 M trisHCl pH 7.4 and then eluted with distilled water. The CETP-active fractions are pooled, dialysed against 50 mM Na acetate pH 4.5 and applied to a CM-Sepharose® (Pharmacia) column. The column is then eluted using a linear gradient (0-1 M NaCl). The pooled CETP fractions are dialysed against 10 mM trisHCl pH 7.4 and then further purified by chromatography on a Mono Q® column (Pharmacia).
50 ml of fresh human EDTA plasma are adjusted to a density of 1.12 using NaBr and centrifuged at 50,000 rpm for 18 h at 4° C. in a Ty 65 rotor. The upper phase is used to obtain cold LDL. The lower phase is dialysed against 3×4 l of PDB buffer (10 mM tris/HCl pH 7.4, […] NaCl, 1 mM EDTA, 0.02% NaN3). 20 μl of ^3 H-cholesterol (Dupont NET-725; 1 μC/μl dissolved in ethanol) are then added per 10 ml of retentate volume and the mixture is incubated under N2 at 37° C. for 72 h.
The mixture is then adjusted to the density 1.21 using NaBr and centrifuged at 20° C. for 18 h at 50,000 rpm in the Ty 65 rotor. The upper phase is recovered and the lipoprotein fractions are purified by gradient centrifugation. To this end, the isolated, labelled lipoprotein fraction is adjusted to a density of 1.26 using NaBr. Each 4 ml of this solution are covered with a layer of 4 ml of a solution of density 1.21 and 4.5 ml of a solution of 1.063 (density solutions from PDB buffer and NaBr) in centrifuge tubes (SW 40 rotor) and then centrifuged in the SW 40 rotor for 24 h at 38,000 rpm and 20° C. The intermediate layer lying between the densities 1.063 and 1.21 and containing the labelled HDL is dialysed at 4° C. against 3×100 volumes of PDB buffer.
The retentate contains radiolabelled ^3 H-CE-HDL which, adjusted to about 5×10^6 cmp per ml, is used for the test.
To test the CETP activity, the transfer of ^3 H-cholesterol ester from human HD lipoproteins to biotinylated LD lipoproteins is measured.
The reaction is ended by addition of streptavidin-SPA®beads (Amersham) and the transferred radioactivity is determined directly in a liquid scintillation counter.
In the test mixture, 10 μl of HDL-^3 H-cholesterol ester (~50,000 cpm) are incubated at 37° C. for 18 h with 10 μl of biotin-LDL (Amersham) in 50 mM Hepes/0.15 M NaCl/0.1% bovine serum albumin/0.05% NaN3 pH 7.4 with 10 μl of CETP (1 mg/ml) and 3 μl of solution of the substance to be tested (dissolved in 10% DMSO/1% RSA). 200 μl of the SPA-streptavidin bead solution (TRKQ 7005) are then added, the mixture is incubated further for 1 h with shaking and then measured in the scintillation counter. As controls, corresponding incubations with 10 μl of buffer, 10 μl of CETP at 4° C. and 10 μl of CETP at 37° C. are used.
The activity transferred into the control mixtures with CETP at 37° C. is rated as 100% transfer. The substance concentration at which this transfer is reduced by half is indicated as the IC50 value.

[2] = test system: lipoproteins and triglycerides; test: In vivo activity in transgenic hCETP mice (lipoproteins and triglycerides); settings: 400 ppm in the feed, one week
Experimental: Transgenic mice from in-house breeding (Dinchuck, Hart, Gonzalez, Karmann, Schmidt, Wirak; BBA (1995), 1295, 301) were administered the substances to be tested in the feed. Before the start of the experiment, blood was taken retro-orbitally from the mice in order to determine cholesterol and triglycerides in the serum. The serum was obtained as described above for hamsters by incubation at 4° C. overnight and subsequent centrifugation at 6000×g. After one week, blood was again taken from the mice in order to determine lipoproteins and triglycerides. The change in the parameters measured is expressed as a percentage change compared with the starting value.

CETP = test: Ex vivo activity: CETP activity in serum of treated hamsters (modified CETP test); design: species or system Syrian golden hamsters; settings: for % Inhibition at 30 mg/kg: ex vivo CETP activity in hamster serum; for ED50 values for ex vivo activity: hamster serum, up to 24 hours after administration
Experimental: Syrian golden hamsters from in-house breeding are anaesthetized after fasting for 24 hours (0.8 mg/kg of atropine, 0.8 mg/kg of Ketavet® s.c., 30'later 50 mg/kg of Nembutal i.p.). The jugular vein is then exposed and cannulated. The test substance is dissolved in a suitable solvent (as a rule Adalat placebo solution: 60 g of glycerol, 100 ml of H2 O, PEG-400 to 1000 ml) and administered to the animals via a PE catheter inserted in the jugular vein. The control animals receive the same volume of solvent without test substance. The vein is then tied off and the wound is closed. The administration of the test substances can also be carried out p.o., by orally administering the substances dissolved in DMSO and suspended in 0.5% Tylose by means of a stomach tube. The control animals receive identical volumes of solvent without test substance.
After various times--up to 24 hours after administration--blood (about 250 μl) is taken from the animals by puncture of the retro-orbital venous plexus. Clotting is ended by incubation at 4° C. overnight, then centrifugation is carried out at 6000×g for 10 minutes. In the serum thus obtained, CETP activity is determined by the modified CETP test. As for the CETP test described above, the transfer of ^3 H-cholesterol ester from HD lipoproteins to biotinylated LD lipoproteins is measured.
The reaction is ended by addition of Streptavidin-SPA®beads (Amersham) and the transferred radioactivity is determined directly in the liquid scintillation counter.
The test mixture is carried out as described under "CETP test". For the testing of the serum, only 10 μl of CETP are replaced by 10 μl of the corresponding serum samples. As controls, corresponding incubations with sera of untreated animals are used.
The activity transferred in the control mixtures with control sera is rated as 100% transfer. The substance concentration at which this transfer is reduced to a half is indicated as the ED50 value.

- IC50 [1]: 6 nM
Structure (SMILES): CC1Cc2nc(C3CCCC3)c(C(F)c3ccc(C(F)(F)F)cc3)c(-c3ccc(F)cc3)c2C(O)C1 (single isomer, unassigned) [Example 76]
- % HDL rise (HDL cholesterol): +15.81%
- HDL (percentage change compared with the starting value) [2]: +31.25%
- LDL (percentage change compared with the starting value) [2]: -15.3%
- Triglycerides (percentage change compared with the starting value) [2]: -11.7%

- IC50 [1]: 60 nM
Structure (SMILES): CC(C)c1nc2c(c(-c3ccc(F)cc3)c1C(F)c1ccc(C(F)(F)F)cc1)C(O)CC(C)(C)C2 (single isomer, unassigned) [Example 90]

- IC50 [1]: 800 nM
Structure (SMILES): CC(C)c1nc2c(c(-c3ccc(F)cc3)c1C(F)c1ccc(C(F)(F)F)cc1)C(O)CC1CC21 (single isomer, unassigned) [Example 237]
- % HDL rise (HDL cholesterol): +21.03%

- IC50 [1]: 30 nM
Structure (SMILES): CC(C)c1nc2c(c(-c3ccc(F)cc3)c1C(F)c1ccc(C(F)(F)F)cc1)C(O)CC1(CCCC1)C2 (single isomer, unassigned) [Example 291]

- IC50 [1]: 0.2 nM
Structure (SMILES): OC1CC2(CCCC2)Cc2nc(C3CCCC3)c(C(F)c3ccc(C(F)(F)F)cc3)c(-c3ccc(F)cc3)c21 (single isomer, unassigned) [Example 300]

- IC50 [1]: 60 nM
Structure (SMILES): CC(C)c1nc2c(c(-c3ccc(F)cc3)c1C(F)c1ccc(C(F)(F)F)cc1)C(O)CC1(CC1)C2 (single isomer, unassigned) [Example 312]

- IC50 [1]: 0.2 nM
Structure (SMILES): CC(C)c1nc2c(c(-c3ccc(F)cc3)c1C(F)c1ccc(C(F)(F)F)cc1)C(O)CC1(CC1)C2 (single isomer, unassigned) [Example 313]

- IC50 [1]: 50 nM
Structure (SMILES): OC1CC2(CC2)Cc2nc(C3CCCC3)c(C(F)c3ccc(C(F)(F)F)cc3)c(-c3ccc(F)cc3)c21 (single isomer, unassigned) [Example 319]

- IC50 [1]: 1.5 nM
Structure (SMILES): OC1CC2(CCC2)Cc2nc(C3CCCC3)c(C(F)c3ccc(C(F)(F)F)cc3)c(-c3ccc(F)cc3)c21 (centres unmarked) [Example 329]

Continued, molecule first:

Structure (SMILES): CC1(C)Cc2nc(C3CCCC3)c(C(F)c3ccc(C(F)(F)F)cc3)c(-c3ccc(F)cc3)c2C(O)C1 (single isomer, unassigned) [Example 91]
- % HDL rise (HDL cholesterol): +12.58%

Structure (SMILES): CC1(C)Cc2nc(C3CCCC3)c(C(F)c3ccc(Cl)c(C(F)(F)F)c3)c(-c3ccc(F)cc3)c2C(O)C1 (single isomer, unassigned) [Example 170]
- % Inhibition at 30 mg/kg (CETP): 60.1%
- ED50 values for ex vivo activity (CETP): < 30 mg/kg

Structure (SMILES): CC1Cc2nc(C3CCCC3)c(C(F)c3ccc(C(F)(F)F)cc3F)c(-c3ccc(F)cc3)c2C(O)C1 (single isomer, unassigned) [Example 181]
- % Inhibition at 30 mg/kg (CETP): 46.4%
- ED50 values for ex vivo activity (CETP): > 30 mg/kg

Structure (SMILES): CC1(C)Cc2nc(C3CCCC3)c(C(F)c3ccc4ccccc4c3)c(-c3ccc(F)cc3)c2C(O)C1 (single isomer, unassigned) [Example 184]
- % Inhibition at 30 mg/kg (CETP): 53.5%
- ED50 values for ex vivo activity (CETP): < 30 mg/kg

Structure (SMILES): OCC1Cc2nc(C3CCCC3)c(C(F)c3ccc(C(F)(F)F)cc3)c(-c3ccc(F)cc3)c2C(O)C1 (single isomer, unassigned) [Example 211]
- % HDL rise (HDL cholesterol): +7.54%

Structure (SMILES): CC1(C)Cc2nc(C3CCCC3)c(C(F)c3ccc4c(c3)OC(F)(F)O4)c(-c3ccc(F)cc3)c2C(O)C1 (single isomer, unassigned) [Example 244]
- IC50 [1]: 60 nM

Structure (SMILES): CC1Cc2nc(C(C)C)c(C(F)c3ccc(C(F)(F)F)cc3)c(-c3ccc(F)cc3)c2C(O)C1 (centres unmarked) [Example 115]
- % Inhibition at 30 mg/kg (CETP): 61.9%
- ED50 values for ex vivo activity (CETP): < 30 mg/kg

Structure (SMILES): CC1Cc2nc(C(C)C)c(C(F)c3ccc(C(F)(F)F)cc3)c(-c3ccc(F)cc3)c2C(O)C1 (centres unmarked) [Example 117]
- % Inhibition at 30 mg/kg (CETP): 86.0%
- ED50 values for ex vivo activity (CETP): < 30 mg/kg

Structure (SMILES): CC1(C)Cc2nc(C3CCCC3)c(C(N=[N+]=[N-])c3ccc(C(F)(F)F)cc3)c(-c3ccc(F)cc3)c2C(O)C1 (centres unmarked) [Example 195]
- IC50 [1]: 750 nM

Structure (SMILES): OC1CC(C2CC2)Cc2nc(C3CCCC3)c(C(F)c3ccc(C(F)(F)F)cc3)c(-c3ccc(F)cc3)c21 (centres unmarked) [Example 209]
- % HDL rise (HDL cholesterol): +25.94%
